From patent publication US20090124631A1, “Combination Therapy” (priority 2007, published 2009) come the findings set out here.

Test [1] has as its system VEGF expression in DU145 cells. The test is described as follows: VEGF transcription in Du145 cells in vitro. Format: cell-based, human. The settings on record: 24 hour treatment. As for the experimental part: Human prostate cancer Du145 cells were exposed to Cpd A or SAHA (3 microM) for 24 hours. Total RNA was collected by Isogen (Nippongene, Tokyo, Japan) and reverse-transcribed to cDNA by ExScript® RT reagent Kit (TAKARA, Kyoto, Japan). The expression level of bFGF mRNA was detected by ABI7700 analyzer using probe/primer pre-mixture reagent (ABI, Cat# Hs00266645_m1, CA, USA) and TaqMan® Universal PCR Master Mix (ABI, Cat# 430-4437) as described in the ABI's protocol. The expression level of VEGF mRNA was detected in a similar manner using the appropriate probe/primer reagents.

In test [2] the test system is human H460 non-small cell lung tumor xenograft. As to the kind of experiment: H460 xenograft, combination with taxotere. Format: in vivo, mouse. The settings on record: H460, oral Compound A 3 times weekly with taxotere i.v. single dose. The protocol: Antitumor studies were done using human H460 non-small cell lung tumor xenograft model in male BALBc/A nude mice (from Japan Crea Inc., Japan). Male nude mice were used at age 8-10 weeks. Human carcinoma cells were injected subcutaneously in the animal flank and allowed to form solid tumors. Tumor fragments (about 2 mm^2 fragments) were then removed and implanted subcutaneously to the right flank of other animals. […] Tumor volumes and gross body weight of animals were monitored twice weekly for up to 3 weeks. Each experimental group contained 6 animals.

With `Nc1ccccc1NC(=O)c1ccc(CNc2nccc(-c3cccnc3)n2)cc1` [Compound A], the VEGF expression result in test [1] is listed as “suppression”. Further, the “antitumor activity of taxotere” value in test [2] was “Potentiation”.
